Data: patent US4889858A, “Dibenz[b,e]oxepin derivatives and pharmaceutical composition containing the same” (Dainippon Pharmaceutical Co., Ltd., priority 1986, dated 1989)
Structures can show the parent of a compound that is named as a salt.

How the values were obtained:
[1] = Prolonging effect of the persistent time of gasping movements in complete ischemia (decapitation); assay type: in vivo, mice (ddY male); conditions: for minimal effective dose: Mus musculus, po, 2 hours after administration, mice; for activity in prolonging gasping movements, in words: p.o., compared with flunarizine hydrochloride / compounds of the invention
Protocol: Test was conducted in accordance with the procedure by Wauquier et al. [Japan J. Pharmacol., 38, 1 (1985)], employing five ddY male mice weighing 20-24 g in each group. Test compounds were suspended in 0.5% tragacanth solution and then a fixed amount of the suspension was orally administered to mice in an amount of 0.1 ml/10 g body weight, while the same amount of 0.5% tragacanth solution was orally administered to control group. Two hours after the administration of the test compounds, the necks of mice were cut with scissors for decapitation. The persistent of gasping movements of isolated heads was measured and minimal effective dose was determined by statistically comparing with the data in control group.

[2] = Anti-convulsant activity (Swinyard); assay type: in vivo, mice (ddY male); set-up: key: 9: Anticonvulsant activity was observed in all three mice.; 1: No anticonvulsant activity was observed in all three mice; conditions: 100 mg/kg p.o.; 2 hours after administration; three mice
Protocol: Three ddY male mice weighing 20-24 g were employed in each group. Test compounds suspended in a 0.5% tragacanth solution were orally administered to mice at a dose of 100mg/kg in an amount of 0.1 ml/10 g body weight. The same amount of 0.5% tragacanth solution was orally administered to control group. Two hours after the administration of the test compounds, the anti-convulsant activity was measured in accordance with the procedure by Swinyard (Mercier, J., Ed., "Anticonvulsant Drugs", P. 47-65, Pargamon Press, New York, 1973).

[3] = Prolonging effect on the time to death by hypoxia (anoxia) in mice; assay type: in vivo, mice (STD-ddY male); conditions: p.o.; compared with flunarizine hydrochloride
Protocol: Five STD-ddY male mice (weighing 20-24 g) were employed in each group. A fixed amount of test compounds was suspended in 0.5% tragacanth solution and the suspension was orally administered to mice in an amount of 0.1 ml/10 g body weight. Two hours after the administration, each mouse was taken in a 2.5 liter plastic chamber and a mixed gas comprising 4% oxygen and 96% nitrogen was passed through the chamber at a rate of 4 liter/min. There was measured the time till the death (respiratory cessation) of mice. To control group, a 0.5% tragacanth solution without test compound was orally administered.

[4] = test system: lipid peroxidation of brain mitochondria; assay: Inhibitory effect on lipid peroxidation of brain mitochondria (thiobarbituric acid method); assay type: biochemical; conditions: rat brain mitochondria; 37° C., 30 minutes; Fe++ 25 μM, ascorbic acid 50 μM
Protocol: This test was conducted in accordance with the procedures by Kubo et al. [Arch. int. Pharmacodyn., 272, 283 (1984)]. Brain mitochondria of rat were incubated in 25 mM Tris-HCl buffer solution at 37° C. for 30 minutes in the presence of Fe^++ ion (25 μM) and ascorbic acid (50 μM), and the produced peroxidized lipid was measured by the thiobarbituric acid method.

[5] = Acute toxicity; assay type: in vivo, mice (ddY male); conditions: 500 mg/kg p.o.; seven days observation; five mice
Protocol: Five ddY male mice weighing 20-24 g were employed in each group. The compound 1 of the present invention suspended in a 0.5% tragacanth solution was orally administered to mice at a dose of 500 mg/kg in an amount of 0.1 ml/10 g body weight. After the administration, the occurrence of death has been observed for seven days.

Row | Structure (SMILES) | minimal effective dose [1] [mg/kg] | Score, anti-convulsant activity [2] | prolonging effect under hypoxic condition, in words [3] | activity in prolonging gasping movements, in words [1] | IC50 [4] [µM] | occurrence of death [5]
1 | Fc1ccc(C(c2ccc(F)cc2)N2CCN(C/C=C/c3ccccc3)CC2)cc1 [Flunarizine hydrochloride, reference compound] | 30 | 9 |  |  |  | 
2 | COc1ccc2c(c1)C(N1CCN(C/C=C/c3ccccc3)CC1)c1ccccc1CO2 (stereo not shown) [Compound 2, 11-(4-cinnamyl-1-piperazinyl)-2-methoxy-6,11-dihydrodibenz[b,e]oxepin] | 3 |  | clearly more excellent than that o flunarizine hydrochloride |  |  | 
3 | Fc1ccc2c(c1)OCc1ccc(F)cc1C2N1CCN(C/C=C/c2ccccc2)CC1 (stereo not shown) [Compound 6] | 10 |  |  |  |  | 
4 | Cc1ccc2c(c1)OCc1ccccc1C2N1CCN(C/C=C/c2ccccc2)CC1 (stereo not shown) [B, 11-(4-cinnamyl-1-piperazinyl)-3-methyl-6,11-dihydrodibenz[b,e]oxepin, reference compound] | > 100 | 1 |  | lower activities | > 150 | 
5 | Fc1ccc2c(c1)C(N1CCN(CC=Cc3cccs3)CC1)c1ccccc1CO2 (stereo not shown) [Compound 8] | 30 |  |  |  |  | 
6 | COc1ccc(OC)c2c1OCc1ccccc1C2N1CCN(C/C=C/c2ccccc2)CC1 (stereo not shown) [Compound 7] | 30 |  |  |  |  | 
7 | COc1cccc(C=CCN2CCN(C3c4ccccc4COc4cc(F)ccc43)CC2)c1 (stereo not shown) [A, 11-? 4-(3,-methoxycinnamyl)-1-piperazinyl-3-fluoro-6-11dihydrodibenz[b,e]oxepin, reference compound] | > 100 | 1 |  | lower activities | > 150 | 
8 | Fc1ccc2c(c1)OCc1ccccc1C2N1CCN(C/C=C/c2ccccc2)CC1 (stereo not shown) [Compound 1, 11-(4-cinnamyl-1-piperazinyl)-3-fluoro-6,11-dihydrodibenz[b,e]oxepin] | 10 | 9 | clearly more excellent than that o flunarizine hydrochloride |  | 7.8 | no death
9 | Fc1ccc2c(c1)COc1ccc(F)cc1C2N1CCN(C/C=C/c2ccccc2)CC1 (stereo not shown) [Compound 4] | 30 | 9 |  |  |  | 
10 | Oc1ccc2c(c1)C(N1CCN(C/C=C/c3ccccc3)CC1)c1ccccc1CO2 (stereo not shown) [Compound 3, 11-(4-cinnamyl-1-piperazinyl)-2-hydroxy-6,11-dihydrodibenz[b,e]oxepin] | 30 |  |  |  | 12.3 | 
11 | Fc1ccc2c(c1)OCc1c(F)cccc1C2N1CCN(C/C=C/c2ccccc2)CC1 (stereo not shown) [Compound 5] | 3 |  |  |  |  | 
